How the values were obtained:
[1] = biological target: T1, hM2 receptor (Homo sapiens, UniProt P08172); experiment: Blockade of agonist-mediated inhibition of cAMP accumulation; format: cell-based; conditions: CHO-K1 cells expressing the hM2 receptor; read-out: Ki for blockade of oxotremorine-inhibition of forskolin-mediated cAMP accumulation
T1 construct: expressed in transfected cells
T1 sequence (P08172 1-466): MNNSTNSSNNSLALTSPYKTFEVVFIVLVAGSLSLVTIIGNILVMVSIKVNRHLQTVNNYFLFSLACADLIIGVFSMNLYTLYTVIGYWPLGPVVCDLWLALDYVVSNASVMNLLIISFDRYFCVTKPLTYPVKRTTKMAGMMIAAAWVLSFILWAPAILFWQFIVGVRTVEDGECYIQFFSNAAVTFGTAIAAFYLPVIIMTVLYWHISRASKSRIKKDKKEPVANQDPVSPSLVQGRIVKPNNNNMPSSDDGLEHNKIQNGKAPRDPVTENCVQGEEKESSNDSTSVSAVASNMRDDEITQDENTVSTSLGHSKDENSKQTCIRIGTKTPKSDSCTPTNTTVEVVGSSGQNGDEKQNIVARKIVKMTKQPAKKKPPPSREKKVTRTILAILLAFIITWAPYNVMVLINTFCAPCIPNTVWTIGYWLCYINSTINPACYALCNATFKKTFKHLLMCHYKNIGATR
Method: A. Blockade of Agonist-Mediated Inhibition of cAMP Accumulation
In this assay, the functional potency of a test compound was determined by measuring the ability of the test compound to block oxotremorine-inhibition of forskolin-mediated cAMP accumulation in CHO-K^1 cells expressing the hM2 receptor.
cAMP assays were performed in a radioimmunoassay format using the Flashplate Adenylyl Cyclase Activation Assay System with ^125I-cAMP (NEN SMP004B, PerkinElmer Life Sciences Inc., Boston, Mass.), according to the manufacturer's instructions.
Cells were rinsed once with dPBS and lifted with […] (0.05% trypsin/[…]) as described in the Cell Culture and Membrane Preparation section above. […] The cell pellet was then re-suspended in 10 mL dPBS, and the cells were counted with a Coulter Z1 Dual Particle Counter (Beckman Coulter, Fullerton, Calif.). […]
Reactions were incubated for 10 minutes at 37° C. and stopped by addition of 100 μL ice-cold detection buffer. Plates were sealed, incubated overnight at room temperature and counted the next morning on a PerkinElmer TopCount liquid scintillation counter (PerkinElmer Inc., Wellesley, Mass.). The amount of cAMP produced (pmol/well) was calculated based on the counts observed for the samples and cAMP standards, as described in the manufacturer's user manual. […]

[2] = system: methacholine-induced decrease in mean arterial pressure; experiment: Methacholine-induced depressor responses in conscious guinea pigs; format: in vivo; conditions: guinea pig, inhalation
Source text: Methacholine-Induced Depressor Responses in Conscious Guinea Pigs
Healthy, adult, male Sprague-Dawley guinea pigs (Harlan, Indianapolis, Ind.), weighing between 200 and 300 g were used in these studies. Under isoflurane anesthesia (to effect), animals were instrumented with common carotid artery and jugular vein catheters (PE-50 tubing). The catheters were exteriorized utilizing a subcutaneous tunnel to the subscapular area. All surgical incisions were sutured with 4-0 Ethicon Silk and the catheters locked with heparin (1000 units/mL). Each animal was administered saline (3 mL, SC) at the end of surgery as well as buprenorphine (0.05 mg/kg, IM). Animals were allowed to recover on a heating pad before being returned to their holding rooms.
Approximately 18 to 20 hours following surgery, the animals were weighed and the carotid artery catheter on each animal was connected to a transducer for recording arterial pressure. Arterial pressure and heart rate was recorded using a Biopac MP-100 Acquisition System. Animals were allowed to acclimate and stabilize for a period of 20 minutes.
Each animal was challenged with methylcholine (MCh) (0.3 mg/kg, iv) administer through the jugular venous line and the cardiovascular response was monitored for 10 minutes. […] At 1.5 and 24 h post-dosing, the animals were re-challenged with MCh (0.3 mg/kg, iv) and the hemodynamic response was determined. […]

Ki [1]: < 5 nM
Compound: CNCCCCCCCCN1CC[C@@H](C(C(N)=O)(c2ccccc2)c2ccccc2)C1 [Example 1, 2-[(S)-1-(8-Methylaminooctyl)pyrrolidin-3-yl]-2,2-diphenylacetamide]
apparent lung-selectivity index (anti-depressor ID50 / bronchoprotective ID50) [2]: greater than 5
